Source: PubChem BioAssay AID504645 (Southern Research Specialized Biocontainment Screening …, 2011)
The source made the active and inactive calls. No rule for the calls is given here.

System: M. tuberculosis H37Rv growth inhibition, glycerol-free medium
Experiment: Mycobacterium tuberculosis H37Rv growth inhibition, glycerol free medium, confirmatory screen (AID 504645);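 also: bacteria grown one week before the viability dye was added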
Settings: not given

Row | SMILES | IC50 [µM]
1 | O=C(c1ccc(CNc2c(N3CCCC3)c(=O)c2=O)cc1)N1CC=C(c2ccccc2)CC1 | 2.52
2 | COC(=O)C(C)Oc1ccc(-c2nccc(-c3ccccn3)n2)cc1 (stereo not drawn) | 2.64
3 | c1ccc(/N=C2\N=C(Nc3ccccn3)c3ccccc32)nc1 | 0.17
4 | O=C(/C=C\c1cccs1)N1CCN(Cc2ccc3c(c2)OCO3)CC1 | 0.36
5 | CC1CC(C)CN(C(=O)C2CCC(CNc3c(N4CCCCC4)c(=O)c3=O)CC2)C1 (stereo not drawn) | 13.3

Same assay, conditions: measured here: 90% growth inhibition

Row | SMILES | IC90 [µM]
6 | O=C(c1ccc(CNc2c(N3CCCC3)c(=O)c2=O)cc1)N1CC=C(c2ccccc2)CC1 | 6.76
7 | COC(=O)C(C)Oc1ccc(-c2nccc(-c3ccccn3)n2)cc1 (stereo not drawn) | 4.53
8 | c1ccc(/N=C2\N=C(Nc3ccccn3)c3ccccc32)nc1 | 0.29
9 | O=C(/C=C\c1cccs1)N1CCN(Cc2ccc3c(c2)OCO3)CC1 | 1.57
10 | CC1CC(C)CN(C(=O)C2CCC(CNc3c(N4CCCCC4)c(=O)c3=O)CC2)C1 (stereo not drawn) | > 25

System: not listed separately
Experiment: as above
Settings: M. tuberculosis H37Rv growth inhibition, glycerol-free medium; at 25 µM (top of the series)

Row | SMILES | inhibition
11 | Oc1ccccc1/C=N/Nc1ccnc(SCc2ccccc2)n1 | 2.52% (inactive)
12 | COc1ccc(-c2noc(CSc3nc(N)c(-c4ccccc4)c(=O)[nH]3)n2)cc1OC | 3.69% (inactive)
13 | CCOc1ccc(NC(=O)CSc2nc(N)c(-c3ccccc3)c(=O)[nH]2)cc1 | 2.14% (inactive)
14 | CN(C(=O)CSc1nc2ccccc2c(=O)[nH]1)C1CCCCC1 | 3.96% (inactive)
15 | O=C(CSc1ncccn1)NC1CCCCC1 | 2.15% (inactive)
16 | Nc1cc(=O)[nH]c(SCC(=O)Nc2ccc(Oc3ccccc3)cc2)n1 | 7.34% (inactive)
17 | O=C(NCCc1ccc(Cl)cc1)C1CCC(CNc2c(N3CCCCC3)c(=O)c2=O)CC1 (stereo not drawn) | 14.2% (inactive)
18 | CCOC(=O)C(CC)Sc1ncnc2c1nnn2-c1ccc(F)cc1 (stereo not drawn) | 14.7% (inactive)
19 | Cc1c[nH]c(=S)[nH]c1=O | 3.09% (inactive)
20 | CCSc1nc(C)c(C)c(=O)[nH]1 | 3.06% (inactive)
21 | COC(=O)C(Nc1nc(SCC(=O)NC2CCCCC2)nc2ccccc12)c1ccccc1 (stereo not drawn) | -2.65% (inactive)
22 | CCC(Sc1nc(=O)cc(N)n1-c1ccccc1)C(=O)Nc1cc(C)on1 (stereo not drawn) | 3.38% (inactive)
23 | CCOC(=O)N1CCC(Nc2c(Nc3cccc(CC)c3)c(=O)c2=O)CC1 | 11.5% (inactive)
24 | O=c1[nH]c(=S)[nH]c2ccccc12 | -4.53% (inactive)
25 | CCOC(=O)N1CCC(Nc2c(N3CCN(c4cccc(C(F)(F)F)c4)CC3)c(=O)c2=O)CC1 | 3.78% (inactive)
26 | Cc1cc(=O)[nH]c(SCC(=O)Nc2ncc(S(=O)(=O)c3ccc([N+](=O)[O-])cc3)s2)n1 | 2.85% (inactive)
27 | Cc1nc(SCC(N)=O)[nH]c(=O)c1C | 2.85% (inactive)

Row | SMILES | inhibition
28 | Cc1cccc(N2CCN(C(=O)c3ccc(CNc4c(N5CCC(C)CC5)c(=O)c4=O)cc3)CC2C)c1 (stereo not drawn) | 4.48% (inactive)
29 | COc1ccc(NC(=O)CSc2nc(NS(=O)(=O)c3ccc(C)cc3)cc(=O)[nH]2)cc1 | 1.34% (inactive)
30 | Cc1cc(C)cc(NC(=O)CSc2nc3c(c(=O)[nH]2)CN(Cc2ccc(F)cc2)CC3)c1 | -0.57% (inactive)
31 | Cc1[nH]c(=S)[nH]c(=O)c1C | -1.69% (inactive)
32 | CCOc1ccc2nc(NC(=O)C(CC)Sc3nc(C)cc(=O)[nH]3)sc2c1 (stereo not drawn) | 4.79% (inactive)
33 | COC(=O)c1ccc(CNc2c(N3CCCC3)c(=O)c2=O)cc1 | -5.38% (inactive)
34 | Cc1cc(=O)[nH]c(=S)[nH]1 | 3.98% (inactive)
35 | CCc1cc(=O)[nH]c(SCC(=O)Nc2ccc3c(c2)OCCO3)n1 | 5.24% (inactive)
36 | Nc1cc(=O)[nH]c(SCC(=O)Nc2ccccc2-c2ccccc2)n1 | 3.67% (inactive)
37 | O=C(NCC1COc2ccccc2O1)C1CCC(CNc2c(N3CCCCC3)c(=O)c2=O)CC1 (stereo not drawn) | 4.5% (inactive)
38 | Cc1ccc(NC(=O)CSc2nc(N)cc(=O)[nH]2)cc1Cl | 10.7% (inactive)
39 | CC1CCN(C(=O)CSc2nc3ccccc3c(=O)[nH]2)CC1 | -0.18% (inactive)
40 | CCSc1nc2ccccc2c(=O)[nH]1 | 4.69% (inactive)
41 | O=C(C1CCC(CNc2c(N3CCCCC3)c(=O)c2=O)CC1)N1CCCCC1 (stereo not drawn) | 1.49% (inactive)
42 | CCCc1cc(=O)[nH]c(SCC(=O)Nc2cc3c(cc2C(C)=O)OCO3)n1 | 9.03% (inactive)
43 | CC(NC(=O)CSc1nc2ccccc2c(=O)[nH]1)c1ccccc1 (stereo not drawn) | 1.63% (inactive)
